Experimental data reported in US8119589B2, “Modulation of CD4+ T cell responses by a tick saliva protein, Salp15 and polypeptides derived therefrom” (University of North Carolina at Charlotte, priority 2004, dated 2012).

Experiments:
[1] = tested on: B cells and macrophages; assay: Receptor capping in B cells and macrophages (anti-IgM, anti-CD16/CD32 cross-linking); format: cell-based, mouse; settings: 50 μg/mL Salp15; anti-IgM and Fc engagement
Method: (§1) For receptor capping studies, mouse primary B and CD11^+ cells were purified by positive selection using biotin anti-mouse CD45R/B220 clone RA3-6B2 and biotin anti-mouse CD11b clone M1/70 (BD Biosciences Pharmingen) respectively, followed by incubation with magnetic microbeads. The cells were analyzed for receptor capping using 25 μg/mL anti-mouse IgM and 25 μg/mL anti-mouse CD16/CD32 respectively, cross-linked with 25 μg/mL of anti-rat IgG594 for 10 min in the presence or absence of 50 μg/mL of Salp15. CD4^+ and CD8^+ T cells were purified by negative selection and incubated with 10 μg/mL anti-CD3 and 1 μg/mL anti-CD28 cross-linked with 10 μg/mL of anti-hamster IgG488 for 10 min in the presence or absence of 50 μg/mL of Salp15.

[2] = tested on: CD8+ T cells; assay: Lipid raft reorganization (CTB594 staining) in anti-CD3/CD28 activated CD8+ T cells; format: cell-based, mouse; settings: Salp15 pretreatment
Method: For the visualization of lipid rafts, phospho-tyrosine, and cytoskeleton reorganization, CD4^+, CD8^+ or Jurkat cells were cytospun for 10 minutes at 1000 RPM onto positively charged microslides (Fisher Scientific, Hampton, N.H., U.S.A.). The cells were fixed with 3.7% paraformaldehyde (Sigma Chemical Co.) for 15 minutes and stained with CTB594 (Molecular Probes, Eugene, Oreg., U.S.A.), AlexaFluor488 labeled phalloidin (Molecular Probes) or (1:50) biotin-conjugated anti-p-Tyr (PY99) followed by Streptavidin-AlexaFluor594 (1:100, Molecular Probes). For p-LAT and p-PLCγ1 staining, fixed cells were treated with PBS containing 0.1% Triton-X 100 and 100 mM glycine for 15 min at room temperature and stained using rabbit p-LAT (Tyr^191) or rabbit anti-p-PLCγ1 (Tyr^783) probed with anti-rabbit IgG488 (Molecular Probes).
as §1, with “CD4^+ and CD8^+ T cells were purified by negative selection and incubated with 10 μg/mL anti-CD3 and 1 μg/mL anti-CD28 cross-linked with 10 μg/mL of anti-hamster IgG488 for 10 min in the presence or absence of 50 μg/mL of Salp15.” left out

[3] = molecular target: T1, sCD4 D1-D4 (Homo sapiens, UniProt P01730); assay: Analytical gel filtration and native gel electrophoresis of Salp15-sCD4; format: binding; settings: native PAGE and Western blot
T1 construct: a sCD4 preparation that contains all four extracellular domains (D1-D4)
Method: Purified sCD4 (D1-D4, 10 μg) and Salp15 (20 μg) were eluted through two SUPERDEX-200™ HR 10/30 gel filtration columns (Amersham Pharmacia Biotech, Piscataway, N.J., U.S.A.) connected in tandem using PBS as equilibration and elution buffer at a flow rate of 0.3 mL/min using an FPLC system (Amersham Pharmacia Biotech) equipped with a liquid chromatography controller LCC-501 Plus and regulated using FPLC director V1.10. To get the elution profile of the Salp15-CD4 complex, Salp15 was incubated with sCD4 before passing it through the gel filtration column. Blue dextran was used to estimate the void volume of the columns, while BSA, ovalbumin and lysozyme were used as molecular weight standards with elution volumes of 14.78 mL, 26.45 mL, 28.45 mL and 39.28 mL, respectively.
Purified sCD4 (D1-D4, 10 μg), Salp15 (10 μg) and sCD4 (10 μg)+Salp15 (10 μg) were diluted into 50% glycerol, 40 mM HEPES (pH 6.5) and 50 mM imidazole (pH 6.5). The native gel [5% Acrylamide:Bis (29:1), 40 mM HEPES (pH 6.5), 50 mM imidazole (pH 6.5) and 10% glycerol] electrophoresis was performed using a 40 mM HEPES (pH 6.5) running buffer and 50 mM imidazole (pH 6.5) at 8 mAmps for 1.5 hours at 4° C. The gel was stained with coomassie blue or transferred to IMMOBILON P® (Millipore) blotting paper for immunoblotting with anti-Poly His-HRP and anti-CD4.

Substance: Salp15: secreted salivary protein from Ixodes scapularis, SEQ ID NO: 2; recombinant His-tagged, produced in Drosophila S2 cells
- Lipid raft reorganization (receptor capping) [1]: did not affect
- Lipid raft reorganization [2]: unaffected
- Migration with sCD4 (D1-D4) in native gel [3]: co-migrated
